Drawing on the METLIN SMRT retention time set (Domingo-Almenara et al. 2019), this text covers RP-LC retention time for 80 molecules.

A short description of the data set: gradient 5% acetonitrile 3 min, to 50% in 2 min, to 85% in 15 min, held 3 min, 100 µL/min. The note with it: column: Zorbax Extend-C18 2.1 x 50 mm; eluents: water / acetonitrile, 0.1% formic acid. The method in brief:
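The system's dead and dwell volumes were 40 μL and 900 μL, with a Zorbax Extend-C18 column (2.1 × 50 mm, 1.8 μm) run at 100 μL/min in water and acetonitrile containing 0.1% formic acid each. Pure standards were analyzed in mixtures of ~100 molecules by HPLC–quadrupole time-of-flight mass spectrometry in positive and negative ionization mode. Retention time was assigned from computationally picked, manually inspected adduct peaks.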
In the case of `Cc1cc(Cc2ccc(S(=O)(=O)N3CCN(C)CC3)cc2)c(=O)[nH]n1`, the RP-LC retention time was 575 s. In turn, `O=C(NCCOc1cc(N2CCCC2)ncn1)NCc1ccccc1` displayed an RP-LC retention time of 575 s. The molecule `COc1ccc(OC)c(NC(=O)c2cc(C)n(CCN(C)C)c2C)c1` registered an RP-LC retention time of 636 s. Then `O=C(NCC1CCCO1)C1CCCN(c2ncccc2-c2noc(C3CCC3)n2)C1` (stereo not given), with 770 s. Regarding `Cc1cc(CNC(=O)NC(C)(C)C)on1`, the RP-LC retention time amounted to 636 s. Then `CN1CCC2(CC1)CN(S(=O)(=O)N(C)C)CC2C(=O)N1CCc2ccccc21` (stereo not given), with 631 s; and `O=C(CSc1nnc2ccccn12)NCc1ccco1`, with 576 s.

`O=C(CCSc1ccccc1)N1CC(c2nc(-c3cccc(Cl)c3)no2)C1` yielded an RP-LC retention time of 1020 s.

`O=C(c1ccc(F)c(F)c1)N1CCOC(c2ccccc2)C1` (stereo not given) displayed an RP-LC retention time of 845 s. Then `Cc1noc(C)c1-c1ccc(S(=O)(=O)Nc2ccc(F)c(F)c2)cc1`, with 939 s; and `Cc1cc(N2CCN(S(=O)(=O)c3ccccc3)CC2)nc(NC2CCCCC2)n1`, with 776 s; and `CCn1c(C(=O)NC(C)CCc2ccco2)cc2sc(Cl)cc21` (stereo not given), with 738 s. The molecule `O=C(O)Cc1sc(-c2ccccc2)nc1-c1ccc(Cl)cc1` registered an RP-LC retention time of 1140 s. Then `COc1ccc(OC)c(NC(=O)CN2C(=O)NC(c3ccc(Cl)cc3)C3=C2COC3=O)c1` (stereo not given), with 790 s; and `COc1ccc(OC)c(Nc2c(-c3ccccn3)nc3cnccn23)c1`, with 744 s; and `Cc1cccc2c(=O)n(C3CCN(C(=O)Nc4ccccc4)CC3)cnc12`, with 751 s. Consider `CC(NC(=O)c1cn(-c2cc(-c3nc(C4CC4)no3)ccn2)cn1)c1ccccc1` (stereo not given), for which the RP-LC retention time was 981 s. `Cc1cccc(N2CCN(C(=O)C3CCCN(c4ncnc5c4nc4n5CCCCC4)C3)CC2)c1C` (stereo not given): the RP-LC retention time came to 1090 s. Then `O=C(CC1c2ncccc2C(=O)N1c1ccccc1)N1CCN(c2ccccn2)CC1` (stereo not given), with 683 s.

As to `CC(C)n1cnc2cc(CNC(=O)Cc3ccc(F)cc3)ccc21`, the RP-LC retention time stood at 623 s.

`CN(C)C(=O)c1n[nH]c2c1CN(C(=O)c1cccc(Br)c1)CC2` gave an RP-LC retention time of 654 s.

For the molecule `O=C(NCc1cc(F)ccc1F)C1CCN(C(=O)c2ncn3c2COC(c2ccccc2)C3)CC1` (stereo not given), the RP-LC retention time was determined as 766 s. To `O=C(c1cc(-c2ccco2)on1)N1CCCC1c1ccccc1F` (stereo not given) belongs 777 s; to `Cn1cc(C(=O)N2CCOCC2)cc(NC(=O)c2cccs2)c1=O`, 596 s. Then `COc1ccc(C)cc1NC1=NS(=O)(=O)c2ccccc21`, with 852 s. `CC(Cc1cc2c(c(C(N)=O)c1)N(CCCO)CC2)NCCOc1ccccc1OCC(F)(F)F` (stereo not given) displayed an RP-LC retention time of 654 s. In turn, `COc1ccc(OCc2ccc(C(=O)Nc3cc4c(cc3C(C)=O)OCO4)o2)cc1` yielded an RP-LC retention time of 1060 s. Molecule `O=C(Nc1ccc(OCc2cc(C(=O)NC3CC3)no2)cc1)c1ccc(Cl)cc1` gave an RP-LC retention time of 872 s.

Molecule `Cc1ccc(S(=O)(=O)N2C[C@H]3CN(C(=O)Nc4cccc(C)c4)C[C@@H](C2)O3)cc1` displayed an RP-LC retention time of 852 s. As for `COc1ccc(-c2cc(C(F)(F)F)n3ncc(C(=O)O)c3n2)cc1`, the RP-LC retention time was 822 s. Then `Cc1cccc(OCc2nc(-c3ccc4c(c3)ncn4CCN3CCCC3)no2)c1`, with 673 s; and `Cc1ccc(NC(=O)Cn2cnc3c(sc4nc(-c5ccccc5)ccc43)c2=O)c(Cl)c1`, with 1120 s.

In turn, `O=C(Cc1csc2nc(-c3ccccc3)cn12)N1CCc2ccccc2C1` came in with an RP-LC retention time of 826 s. As to `CCCC(=O)N1CCC2(CC1)NC(=O)c1ccccc1O2`, the RP-LC retention time stood at 688 s. To `Cc1nc2cc(-c3noc(Cc4ccccc4Cl)n3)ccc2o1` belongs 1030 s; to `O=C(NCC(=O)N1CCN(c2ccccn2)CC1)c1ccc(OC(F)(F)F)cc1`, 635 s; to `CC(C)Cn1c(=O)c(C(=O)NCCc2cccnc2)nc2cccnc21`, 635 s. With `COc1ccc(-n2c(=O)c3sccc3n(Cc3nc(-c4ccc(F)c(Cl)c4)no3)c2=O)cc1`, the RP-LC retention time is 1040 s. Consider `O=C(NC1CCCC1)C1c2cccn2CC(=O)N1Cc1ccc(Cl)cc1` (stereo not given), for which the RP-LC retention time turned out to be 905 s. With `OCCn1cc(-c2ccc3c(c2)CC/C3=N\O)c(-c2ccncc2)n1`, the RP-LC retention time came out at 603 s.

With `O=C(NCCn1nc(-n2cccn2)ccc1=O)C1(c2ccccc2)CCOCC1`, the RP-LC retention time amounted to 635 s. As to `O=C(NCCc1ccncc1)c1cnn(-c2ccccc2)n1`, the RP-LC retention time came to 560 s. For the molecule `CCOC(=O)C1=C(C)N(CC(=O)N2CCCC2)c2ncnn2C1c1ccc(C)cc1` (stereo not given), the RP-LC retention time is 824 s. To `CCc1ccc(-c2noc(Cn3c(=O)n(-c4cccc(C)c4)c(=O)c4sccc43)n2)cc1` belongs 1150 s; to `CCn1cc(S(=O)(=O)N2CCCN(S(=O)(=O)c3ccccc3)CCC(=O)NCC2)cn1`, 702 s. Consider `Cc1cc(C)n(CC2CCN(C(=O)c3cc4ccccc4[nH]3)CC2)n1`, for which the RP-LC retention time turned out to be 717 s. In turn, `COCc1ncc(C)n1CC1CN(C(=O)C2(c3ccccc3)CC2)C1` showed an RP-LC retention time of 621 s.

As to `CCc1nc(N)n(CC(=O)Nc2cc(C)ccc2OC)c(=O)c1C`, the RP-LC retention time worked out at 640 s. To `Cc1cc(-c2nc(-c3ccc(F)cc3)no2)c(C)n1CC(=O)N1CCCC(C)C1` (stereo not given) belongs 1180 s. To `Clc1ccc(C2Cn3nnc(-c4nc(-c5ccccn5)no4)c3CO2)cc1` (stereo not given) belongs 936 s.

For `CCN1c2ccc(F)cc2C(=O)NC12CCN(C(=O)c1ccc(OC)cc1)CC2`, the RP-LC retention time came out at 773 s.

The molecule `CC(=O)c1cccc(NC(=O)c2cnn(-c3ccc(Br)cc3)c2)c1` yielded an RP-LC retention time of 940 s. `COCCn1c(C2CCN(S(=O)(=O)c3ccc(C)c(Cl)c3)C2)nc2ccncc21` (stereo not given) registered an RP-LC retention time of 591 s.

Take `COC(=O)C1=CN(c2ccc(OC)cc2)c2cc(F)ccc2S1(=O)=O`: the RP-LC retention time amounted to 844 s. On to `O=C(C1CCOC1)N1CCCn2nc(-c3cccc(Cl)c3)cc2C1` (stereo not given), for which the RP-LC retention time was 771 s. With `O=C(CN1CCN(Cc2ccc(F)cc2)C1=O)N1CCN(C2CCCCC2)CC1`, the RP-LC retention time was found to be 613 s. `Cc1ncoc1C(=O)N1CC(c2noc(C3CCCN3CC3CC3)n2)C1` (stereo not given) showed an RP-LC retention time of 559 s.

`Cc1ccc(Cn2c(N3CCCC(C(=O)NCCC4=CCCCC4)C3)nc3ccsc3c2=O)cc1` (stereo not given) returned an RP-LC retention time of 1150 s.

On to `CCCn1cc(S(=O)(=O)Nc2ccc(C#N)cc2)c2cccnc21`, for which the RP-LC retention time worked out at 844 s. Then `CC1CCN(S(=O)(=O)c2ccc(-c3nnc(C(=O)NC4CCCC4)o3)cc2)CC1`, with 1030 s.

In the case of `O=C(Cc1csc(-c2ccccc2F)n1)NCCc1c[nH]c2ccccc12`, the RP-LC retention time amounted to 904 s.

Turning to `COc1cccc(-c2nc(-c3ccnc(N4CCOCC4)c3)no2)c1`, the RP-LC retention time came out at 944 s.

`CCCN(C)C(=O)c1cc2c(s1)N(CC1CC1)CCCC2` yielded an RP-LC retention time of 1160 s.

Take `Cc1cccc(NC(=O)Cn2c(C)nc3onc(C)c3c2=O)c1C`: the RP-LC retention time came out at 861 s. Then `COc1cccc(-c2csc(-c3nnn(-c4ccc(C)c(C)c4)c3N)n2)c1`, with 1170 s. To `CN(C)c1cccc(C(=O)NC2CCN(c3cc(-c4ccccc4)[nH]n3)C2)c1` (stereo not given) belongs 664 s; to `Cc1ccc(-c2noc(-c3cccc(S(=O)(=O)N4CCN(C)CC4)c3)n2)cc1`, 735 s; to `CCN1C(=O)COc2cc(-c3noc(C(=O)N4CCN(C)CC4)n3)ccc21`, 616 s. Then `Cc1ccc(NC(=O)N2CCCC(CC(=O)N3CCC(Cc4ccccc4)CC3)C2)cc1` (stereo not given), with 1120 s; and `CCC(=O)CCCCC[C@@H]1NC(=O)[C@H]2CCCCN2C(=O)[C@H]([C@H](C)CC)NC(=O)[C@H](Cc2cn(OC)c3ccccc23)NC1=O`, with 965 s; and `CN(C)S(=O)(=O)c1ccc(-c2nnc(C(=O)NCc3ccccc3F)o2)cc1`, with 840 s. For the molecule `Cc1ccc(OCCC2CCNC2)cc1` (stereo not given), the RP-LC retention time amounted to 646 s.

With `COc1ccccc1OCC(=O)N1CCc2cc(-c3csc(C)n3)ccc21`, the RP-LC retention time was determined as 954 s. To `CC1CCC(NC(=O)CN2C(=O)CCCc3cc(S(=O)(=O)N4CCCCC4)ccc32)CC1` (stereo not given) belongs 945 s. Then `O=C(NC1CCN(C(=O)c2cn(-c3cccc(F)c3)nn2)CC1)c1ccc2ccccc2n1`, with 831 s; and `COc1ccc(-c2ccc(=O)[nH]n2)cc1OC`, with 582 s.

In turn, `O=C(c1cc2ccccc2[nH]1)N1CCN(c2ccc(=O)n(-c3ccc(Cl)cc3)n2)CC1` showed an RP-LC retention time of 918 s. To `C/C(=N\NC(N)=O)c1ccc(Cl)c(-n2cccc2)c1` belongs 855 s. Then `C=CCN1C(=O)COc2ccc(-c3csc(NC(=O)c4ccccc4)n3)cc21`, with 982 s; and `Cc1ccc(N2CC(C(=O)NC(C)C)CC2=O)cc1` (stereo not given), with 712 s.
